Data published in patent US10131652B2, “Pyrimidinyloxy benzene derivatives as herbicides” (E. I. DU PONT DE NEMOURS AND COMPANY, priority 2014, dated 2018).

How the values were obtained:
Type in all cases: in vivo
[1] = test system: Italian ryegrass (Lolium multiflorum); assay: Test D pre-/postemergence plant response
From the text: (§1) Seeds of plant species selected from blackgrass (Alopecurus myosuroides), Italian ryegrass (Lolium multiflorum), winter wheat (Triticum aestivum), galium (catchweed bedstraw, Galium aparine), corn (Zea mays), large (Lg) crabgrass (Digitaria sanguinalis), giant foxtail (Setaria faberii), johnsongrass (Sorghum halepense), lambsquarters (Chenopodium album), morningglory (Ipomoea coccinea), yellow nutsedge (Cyperus esculentus), pigweed (Amaranthus retroflexus), ragweed (common ragweed, Ambrosia elatior), soybean (Glycine max), bamyardgrass (Echinochloa crus-galli), oilseed rape (Brassica napus), waterhemp (common waterhemp, Amaranthus rudis), and velvetleaf (Abutilon theophrasti) were planted into a blend of loam soil and sand and treated preemergence with test chemicals formulated in a non-phytotoxic solvent mixture which included a surfactant. At the same time, plants selected from these crop and weed species and also kochia (Kochia scoparia), wild oat (Avena fatua), and chickweed (common chickweed, Stellaria media) were planted in pots containing Redi-Earth® planting medium (Scotts Company, 14111 Scottslawn Road, Marysville, Ohio 43041) comprising spaghnum peat moss, vermiculite, wetting agent and starter nutrients and treated with postemergence applications of test chemicals formulated in the same manner. Plants ranged in height from 2 to 18 cm (1- to 4-leaf stage) for postemergence treatments. Treated plants and controls were maintained in a greenhouse for 13 to 15 days, after which time all species were compared to controls and visually evaluated. Plant response ratings, summarized in Table D, are based on a scale of 0 to 100 where 0 is no effect and 100 is complete control. A dash (-) response means no test result.

[2] = test system: giant foxtail (Setaria faberii); assay: Test D pre-/postemergence plant response
From the text: as §1

[3] = test system: pigweed (Amaranthus retroflexus); assay: Test D pre-/postemergence plant response
From the text: as §1

[4] = test system: waterhemp (common waterhemp, Amaranthus rudis); assay: Test D pre-/postemergence plant response
From the text: as §1

[5] = test system: morningglory (Ipomoea coccinea); assay: Test D pre-/postemergence plant response
From the text: as §1

[6] = test system: lambsquarters (Chenopodium album); assay: Test D pre-/postemergence plant response
From the text: as §1

[7] = test system: galium (catchweed bedstraw, Galium aparine); assay: Test D pre-/postemergence plant response
From the text: as §1

[8] = test system: corn (Zea mays); assay: Test D pre-/postemergence plant response
From the text: as §1

[9] = test system: barnyardgrass (Echinochloa crus-galli); assay: Test D pre-/postemergence plant response
From the text: as §1

[10] = test system: blackgrass (Alopecurus myosuroides); assay: Test D pre-/postemergence plant response
From the text: as §1

[11] = test system: ragweed (common ragweed, Ambrosia elatior); assay: Test D pre-/postemergence plant response
From the text: as §1

[12] = test system: giant foxtail (Setaria faberii); assay: Test B pre-/postemergence plant response
Outline: (§2)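 Visual injury scores on a 0–100 scale (100 = complete control) relative to untreated plants, taken about 10 days post-treatment in greenhouse. Treatments were a directed preemergence soil spray and a postemergence spray at one- to two-leaf stage, using surfactant-containing solvent formulation.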

[13] = test system: pigweed (Amaranthus retroflexus); assay: Test B pre-/postemergence plant response
Outline: as §2

[14] = test system: wheat (Triticum aestivum); assay: Test B pre-/postemergence plant response
Outline: as §2

[15] = test system: corn (Zea mays); assay: Test B pre-/postemergence plant response
Outline: as §2

[16] = test system: barnyardgrass (Echinochloa crus-galli); assay: Test B pre-/postemergence plant response
Outline: as §2

[17] = Postemergence, 31 g ai/ha, scale 0 to 100 (0 no effect, 100 complete control)
[18] = Postemergence, 62 g ai/ha, scale 0 to 100, 0 no effect, 100 complete control
[19] = Postemergence, 125 g ai/ha, scale 0 to 100, 0 no effect, 100 complete control
[20] = Preemergence, 16 g ai/ha, scale 0 to 100 (0 no effect, 100 complete control)
[21] = Preemergence, 31 g ai/ha, scale 0 to 100 (0 no effect, 100 complete control)
[22] = Preemergence, 62 g ai/ha, scale 0 to 100 (0 no effect, 100 complete control)
[23] = 125 g ai/ha, postemergence, 0 to 100 scale, 0 no effect, 100 complete control
[24] = Postemergence, 500 g ai/ha, 0 to 100 scale (0 no effect, 100 complete control)
[25] = Preemergence, 125 g ai/ha, 0 to 100 scale (0 no effect, 100 complete control)
[26] = Preemergence, 500 g ai/ha, 0 to 100 scale where 0 is no effect and 100 is complete control

FC(F)c1cc(-c2c(Cl)cccc2Oc2ncc(Cl)cn2)no1 [Compound 179]
Plant response rating (scale 0 to 100), Ryegrass, Italian ([1]; Postemergence, 16 g ai/ha): 0 | Ryegrass, Italian plant response rating [1, 17]: 5 | Ryegrass, Italian plant response rating [1, 18]: 5 | Plant response rating, Ryegrass, Italian [1, 19]: 20 | Plant response rating (scale 0 to 100), Ryegrass, Italian ([1]; Preemergence, 125 g ai/ha): 80 | Plant response rating, Ryegrass, Italian [1, 20]: 0 | Plant response rating, Ryegrass, Italian [1, 21]: 5 | Plant response rating, Ryegrass, Italian [1, 22]: 15 | Plant response rating (scale 0 to 100), Foxtail, Giant ([2]; Postemergence, 16 g ai/ha): 5 | Foxtail, Giant plant response rating [2, 17]: 5 | Plant response rating, Foxtail, Giant [2, 18]: 40 | Plant response rating, Foxtail, Giant [2, 19]: 30 | Plant response rating (scale 0 to 100), Foxtail, Giant ([2]; Preemergence, 125 g ai/ha): 85 | Plant response rating, Foxtail, Giant [2, 20]: 5 | Plant response rating, Foxtail, Giant [2, 21]: 30 | Plant response rating, Foxtail, Giant [2, 22]: 85 | Plant response rating (scale 0 to 100), Pigweed ([3]; Postemergence, 16 g ai/ha): 80 | Pigweed plant response rating [3, 17]: 90 | Pigweed plant response rating [3, 18]: 98 | Plant response rating, Pigweed [3, 19]: 98 | Plant response rating (scale 0 to 100), Pigweed ([3]; Preemergence, 125 g ai/ha): 100 | Plant response rating, Pigweed [3, 20]: 30 | Plant response rating, Pigweed [3, 21]: 100 | Plant response rating, Pigweed [3, 22]: 100 | Plant response rating (scale 0 to 100), Waterhemp ([4]; Postemergence, 16 g ai/ha): 60 | Waterhemp plant response rating [4, 17]: 90 | Waterhemp plant response rating [4, 18]: 95 | Plant response rating, Waterhemp [4, 19]: 98 | Plant response rating (scale 0 to 100), Waterhemp ([4]; Preemergence, 125 g ai/ha): 100 | Plant response rating, Waterhemp [4, 20]: 75 | Plant response rating, Waterhemp [4, 21]: 90 | Plant response rating, Waterhemp [4, 22]: 90 | Plant response rating (scale 0 to 100), Morningglory ([5]; Postemergence, 16 g ai/ha): 30 | Morningglory plant response rating [5, 17]: 65 | Morningglory plant response rating [5, 18]: 85 | Plant response rating, Morningglory [5, 19]: 90 | Plant response rating (scale 0 to 100), Morningglory ([5]; Preemergence, 125 g ai/ha): 15 | Plant response rating, Morningglory [5, 20]: 0 | Plant response rating, Morningglory [5, 21]: 0 | Plant response rating, Morningglory [5, 22]: 0 | Plant response rating (scale 0 to 100), Lambsquarters ([6]; Postemergence, 16 g ai/ha): 70 | Lambsquarters plant response rating [6, 17]: 75 | Lambsquarters plant response rating [6, 18]: 75 | Plant response rating, Lambsquarters [6, 19]: 100 | Plant response rating (scale 0 to 100), Lambsquarters ([6]; Preemergence, 125 g ai/ha): 100 | Plant response rating, Lambsquarters [6, 20]: 75 | Plant response rating, Lambsquarters [6, 21]: 100 | Plant response rating, Lambsquarters [6, 22]: 100 | Plant response rating (scale 0 to 100), Galium ([7]; Postemergence, 16 g ai/ha): 70 | Galium plant response rating [7, 17]: 80 | Plant response rating, Galium [7, 18]: 70 | Plant response rating, Galium [7, 19]: 75 | Plant response rating (scale 0 to 100), Galium ([7]; Preemergence, 125 g ai/ha): 98 | Plant response rating, Galium [7, 20]: 90 | Plant response rating, Galium [7, 21]: 90 | Plant response rating, Galium [7, 22]: 90 | Plant response rating (scale 0 to 100), Corn ([8]; Postemergence, 16 g ai/ha): 5 | Corn plant response rating [8, 17]: 10 | Plant response rating, Corn [8, 18]: 10 | Plant response rating, Corn [8, 19]: 15 | Plant response rating (scale 0 to 100), Corn ([8]; Preemergence, 125 g ai/ha): 5 | Plant response rating, Corn [8, 20]: 0 | Plant response rating, Corn [8, 21]: 0 | Plant response rating, Corn [8, 22]: 0 | Plant response rating (scale 0 to 100), Barnyardgrass ([9]; Postemergence, 16 g ai/ha): 0 | Barnyardgrass plant response rating [9, 17]: 0 | Plant response rating, Barnyardgrass [9, 18]: 5 | Plant response rating, Barnyardgrass [9, 19]: 5 | Plant response rating (scale 0 to 100), Barnyardgrass ([9]; Preemergence, 125 g ai/ha): 35 | Plant response rating, Barnyardgrass [9, 20]: 0 | Plant response rating, Barnyardgrass [9, 21]: 5 | Plant response rating, Barnyardgrass [9, 22]: 15 | Plant response rating (scale 0 to 100), Blackgrass ([10]; Postemergence, 16 g ai/ha): 5 | Blackgrass plant response rating [10, 17]: 5 | Plant response rating, Blackgrass [10, 18]: 15 | Plant response rating, Blackgrass [10, 19]: 20 | Plant response rating (scale 0 to 100), Blackgrass ([10]; Preemergence, 125 g ai/ha): 80 | Plant response rating, Blackgrass [10, 20]: 0 | Plant response rating, Blackgrass [10, 21]: 30 | Plant response rating, Blackgrass [10, 22]: 45 | Plant response rating (scale 0 to 100), Ragweed ([11]; Postemergence, 16 g ai/ha): 30 | Ragweed plant response rating [11, 17]: 25 | Ragweed plant response rating [11, 18]: 50 | Plant response rating, Ragweed [11, 19]: 60 | Plant response rating (scale 0 to 100), Ragweed ([11]; Preemergence, 125 g ai/ha): 60 | Plant response rating, Ragweed [11, 20]: 25 | Plant response rating, Ragweed [11, 21]: 30 | Plant response rating, Ragweed [11, 22]: 40 | Plant response rating, Foxtail, Giant [12, 23]: 40 | Plant response rating, Foxtail, Giant [12, 24]: 80 | Foxtail, Giant plant response rating [12, 25]: 80 | Plant response rating, Foxtail, Giant [12, 26]: 100 | Plant response rating, Pigweed [13, 23]: 100 | Plant response rating, Pigweed [13, 24]: 100 | Pigweed plant response rating [13, 25]: 100 | Plant response rating, Pigweed [13, 26]: 100 | Plant response rating, Wheat [14, 23]: 40 | Plant response rating, Wheat [14, 24]: 90 | Plant response rating, Corn [15, 23]: 10 | Plant response rating, Corn [15, 24]: 40 | Plant response rating, Barnyardgrass [16, 23]: 10 | Plant response rating, Barnyardgrass [16, 24]: 80 | Barnyardgrass plant response rating [16, 25]: 10 | Plant response rating, Barnyardgrass [16, 26]: 90
